# Source: ChEMBL document CHEMBL4507273 (2021)
# Columns and labels:
# [1] = molecular target: Adenosine Transporter (Cavia porcellus) (UniProt H0V4R7+H0UUG1+H0V3Z5); assay: Inhibition of Transporter, Adenosine at compound concentration of 10.0 uM in the Eurofins-Panlabs radioligand binding assay (Eurofins_assay_202000); assay type: protein assay; design: ligand concentration 0.5 nM, non-specific ligand with concentration 5 uM Nitrobenzylthioinosine, incubation time 30 min, incubation temperature 25 C; settings: Compound concentration 10.0 uM
# [2] = molecular target: T1, Testis-specific serine/threonine-protein kinase 1 (Homo sapiens) (UniProt Q9BXA7); assay: TSSK1(h) Eurofins Kinase panel; settings: Compound concentration 1.0 uM
# T1 sequence (whole entry): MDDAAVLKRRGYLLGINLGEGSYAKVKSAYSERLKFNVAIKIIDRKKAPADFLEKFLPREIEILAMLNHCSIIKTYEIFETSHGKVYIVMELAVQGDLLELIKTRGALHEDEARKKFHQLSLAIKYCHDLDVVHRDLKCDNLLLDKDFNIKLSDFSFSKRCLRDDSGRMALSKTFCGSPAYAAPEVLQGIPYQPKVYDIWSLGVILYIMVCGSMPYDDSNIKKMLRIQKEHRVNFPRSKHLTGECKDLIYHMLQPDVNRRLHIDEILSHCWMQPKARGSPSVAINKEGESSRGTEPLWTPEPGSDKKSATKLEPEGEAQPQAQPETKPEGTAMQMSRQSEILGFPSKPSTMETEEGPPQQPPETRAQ
# [3] = molecular target: Serine/threonine-protein kinase Chk2 (Homo sapiens) (UniProt O96017); assay: CHK2(h) Eurofins Kinase panel; settings: Compound concentration 1.0 uM
# Serine/threonine-protein kinase Chk2 (Homo sapiens), sequence (O96017 whole entry, the tested form may be a part): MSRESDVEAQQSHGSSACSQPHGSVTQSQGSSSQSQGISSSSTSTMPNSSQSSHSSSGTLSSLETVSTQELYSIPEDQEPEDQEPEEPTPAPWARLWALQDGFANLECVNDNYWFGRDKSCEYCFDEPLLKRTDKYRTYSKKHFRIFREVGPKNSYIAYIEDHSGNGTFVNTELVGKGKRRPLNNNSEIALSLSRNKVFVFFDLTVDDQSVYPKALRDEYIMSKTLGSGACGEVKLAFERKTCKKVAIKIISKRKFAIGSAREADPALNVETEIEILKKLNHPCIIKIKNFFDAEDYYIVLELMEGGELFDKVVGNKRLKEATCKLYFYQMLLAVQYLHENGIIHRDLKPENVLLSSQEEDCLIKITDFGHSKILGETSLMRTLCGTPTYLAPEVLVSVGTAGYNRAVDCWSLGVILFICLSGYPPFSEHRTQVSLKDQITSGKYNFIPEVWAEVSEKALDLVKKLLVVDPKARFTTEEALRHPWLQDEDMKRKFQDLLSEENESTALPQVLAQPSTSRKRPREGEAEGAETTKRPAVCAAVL
# [4] = molecular target: PAS domain-containing serine/threonine-protein kinase (Homo sapiens) (UniProt Q96RG2); assay: PASK(h) Eurofins Kinase panel; settings: Compound concentration 1.0 uM
# [5] = molecular target: Tau-tubulin kinase 1 (Homo sapiens) (UniProt Q5TCY1); assay: TTBK1(h) Eurofins Kinase panel; settings: Compound concentration 1.0 uM
# Tau-tubulin kinase 1 (Homo sapiens), sequence (Q5TCY1 whole entry): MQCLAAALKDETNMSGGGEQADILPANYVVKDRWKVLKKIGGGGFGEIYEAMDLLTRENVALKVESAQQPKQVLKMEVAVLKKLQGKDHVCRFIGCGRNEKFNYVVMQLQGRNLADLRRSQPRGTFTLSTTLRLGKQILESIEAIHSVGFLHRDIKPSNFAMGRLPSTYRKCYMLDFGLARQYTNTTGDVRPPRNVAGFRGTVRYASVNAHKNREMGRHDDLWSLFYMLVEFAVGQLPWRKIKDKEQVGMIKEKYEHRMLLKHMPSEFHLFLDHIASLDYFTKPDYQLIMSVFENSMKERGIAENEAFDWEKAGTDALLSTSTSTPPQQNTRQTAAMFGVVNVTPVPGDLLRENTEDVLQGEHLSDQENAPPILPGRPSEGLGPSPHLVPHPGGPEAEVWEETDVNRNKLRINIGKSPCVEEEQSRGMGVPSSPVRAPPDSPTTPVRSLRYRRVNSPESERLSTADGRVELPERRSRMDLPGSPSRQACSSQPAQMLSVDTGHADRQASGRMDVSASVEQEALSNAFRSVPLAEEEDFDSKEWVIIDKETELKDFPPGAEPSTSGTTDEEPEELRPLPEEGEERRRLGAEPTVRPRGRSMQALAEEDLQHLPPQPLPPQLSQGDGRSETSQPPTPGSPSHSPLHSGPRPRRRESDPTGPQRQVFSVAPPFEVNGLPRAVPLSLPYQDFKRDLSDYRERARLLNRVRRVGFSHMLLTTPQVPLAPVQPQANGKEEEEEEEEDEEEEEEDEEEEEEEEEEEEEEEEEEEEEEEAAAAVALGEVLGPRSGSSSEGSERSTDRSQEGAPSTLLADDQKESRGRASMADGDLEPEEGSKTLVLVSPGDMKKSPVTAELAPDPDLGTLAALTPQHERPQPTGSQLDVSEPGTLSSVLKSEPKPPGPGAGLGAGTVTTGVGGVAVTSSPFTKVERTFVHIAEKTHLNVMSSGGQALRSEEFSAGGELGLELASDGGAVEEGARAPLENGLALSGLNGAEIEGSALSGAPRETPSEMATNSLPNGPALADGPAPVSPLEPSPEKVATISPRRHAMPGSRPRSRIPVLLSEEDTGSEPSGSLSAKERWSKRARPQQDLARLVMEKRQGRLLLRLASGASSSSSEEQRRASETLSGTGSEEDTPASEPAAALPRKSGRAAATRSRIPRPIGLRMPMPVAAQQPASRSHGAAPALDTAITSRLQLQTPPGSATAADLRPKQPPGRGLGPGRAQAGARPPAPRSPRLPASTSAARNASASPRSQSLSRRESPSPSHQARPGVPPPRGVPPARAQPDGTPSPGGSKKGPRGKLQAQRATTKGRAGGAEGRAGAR
# [6] = molecular target: Tyrosine-protein kinase Lyn (Homo sapiens) (UniProt P07948); assay: Lyn(h) Eurofins Kinase panel; settings: Compound concentration 1.0 uM
# Tyrosine-protein kinase Lyn (Homo sapiens), sequence (P07948 2-512 limits assumed): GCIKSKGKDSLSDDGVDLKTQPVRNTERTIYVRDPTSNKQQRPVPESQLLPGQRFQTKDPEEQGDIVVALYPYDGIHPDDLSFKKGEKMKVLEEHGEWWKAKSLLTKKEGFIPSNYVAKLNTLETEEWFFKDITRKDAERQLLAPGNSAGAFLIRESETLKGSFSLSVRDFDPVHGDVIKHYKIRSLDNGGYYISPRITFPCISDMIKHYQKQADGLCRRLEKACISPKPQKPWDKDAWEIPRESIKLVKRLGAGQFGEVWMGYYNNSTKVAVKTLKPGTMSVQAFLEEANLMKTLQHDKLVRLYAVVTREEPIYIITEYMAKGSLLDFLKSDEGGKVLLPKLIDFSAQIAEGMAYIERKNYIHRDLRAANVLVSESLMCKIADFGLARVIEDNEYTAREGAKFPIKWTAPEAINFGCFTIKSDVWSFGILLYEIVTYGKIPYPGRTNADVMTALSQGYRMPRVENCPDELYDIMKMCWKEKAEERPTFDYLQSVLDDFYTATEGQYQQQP
# [7] = molecular target: T2, Protein kinase C epsilon type (Homo sapiens) (UniProt Q02156); assay: PKCepsilon(h) Eurofins Kinase panel; settings: Compound concentration 1.0 uM
# T2 sequence (whole entry): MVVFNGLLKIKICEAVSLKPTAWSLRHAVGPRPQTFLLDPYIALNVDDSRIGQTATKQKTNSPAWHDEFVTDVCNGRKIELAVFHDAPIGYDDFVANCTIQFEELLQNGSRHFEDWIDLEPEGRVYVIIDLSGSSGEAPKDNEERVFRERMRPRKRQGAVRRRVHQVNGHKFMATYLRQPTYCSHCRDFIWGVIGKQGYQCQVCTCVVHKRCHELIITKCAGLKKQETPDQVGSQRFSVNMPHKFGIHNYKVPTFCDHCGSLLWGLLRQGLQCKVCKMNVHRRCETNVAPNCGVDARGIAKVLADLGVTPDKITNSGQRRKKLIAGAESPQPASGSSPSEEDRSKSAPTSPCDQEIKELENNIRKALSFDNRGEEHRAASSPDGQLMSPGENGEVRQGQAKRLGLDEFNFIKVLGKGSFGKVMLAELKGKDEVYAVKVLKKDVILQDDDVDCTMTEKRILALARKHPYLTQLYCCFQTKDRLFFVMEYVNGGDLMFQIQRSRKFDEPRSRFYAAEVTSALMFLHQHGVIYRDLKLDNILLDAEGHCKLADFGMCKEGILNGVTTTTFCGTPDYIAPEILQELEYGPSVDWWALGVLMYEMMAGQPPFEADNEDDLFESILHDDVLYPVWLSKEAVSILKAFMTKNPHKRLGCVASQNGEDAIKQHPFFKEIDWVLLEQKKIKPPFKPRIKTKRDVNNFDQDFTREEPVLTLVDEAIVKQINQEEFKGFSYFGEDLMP
# ATR/ATRIP (Homo sapiens) = ATR/ATRIP (Homo sapiens) (UniProt Q13535+Q8WXE1); assay: ATR/ATRIP(h) Eurofins Kinase panel; assay type: protein-complex assay; settings: Compound concentration 1.0 uM
# [8] = molecular target: T3, Alpha-1A adrenergic receptor (Homo sapiens) (UniProt P35348); settings: Rattus norvegicus; Compound concentration 10.0 uM
# T3 sequence (whole entry): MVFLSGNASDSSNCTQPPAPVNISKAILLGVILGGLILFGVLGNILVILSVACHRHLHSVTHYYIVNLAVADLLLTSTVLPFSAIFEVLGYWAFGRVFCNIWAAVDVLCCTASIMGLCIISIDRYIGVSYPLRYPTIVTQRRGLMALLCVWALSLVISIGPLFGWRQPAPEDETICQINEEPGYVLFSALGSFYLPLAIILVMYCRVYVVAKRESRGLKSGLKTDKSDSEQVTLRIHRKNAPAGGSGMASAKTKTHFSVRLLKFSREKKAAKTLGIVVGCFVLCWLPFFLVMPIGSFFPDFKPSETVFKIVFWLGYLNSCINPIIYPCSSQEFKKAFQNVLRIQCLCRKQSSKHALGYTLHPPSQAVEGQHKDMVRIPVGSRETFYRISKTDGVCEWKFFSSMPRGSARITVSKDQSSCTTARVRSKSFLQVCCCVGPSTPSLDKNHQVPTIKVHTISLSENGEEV
# D(1A) dopamine receptor = D(1A) dopamine receptor (Homo sapiens, UniProt P21728); settings: Compound concentration 10.0 uM
# D(1A) dopamine receptor, sequence (P21728 whole entry): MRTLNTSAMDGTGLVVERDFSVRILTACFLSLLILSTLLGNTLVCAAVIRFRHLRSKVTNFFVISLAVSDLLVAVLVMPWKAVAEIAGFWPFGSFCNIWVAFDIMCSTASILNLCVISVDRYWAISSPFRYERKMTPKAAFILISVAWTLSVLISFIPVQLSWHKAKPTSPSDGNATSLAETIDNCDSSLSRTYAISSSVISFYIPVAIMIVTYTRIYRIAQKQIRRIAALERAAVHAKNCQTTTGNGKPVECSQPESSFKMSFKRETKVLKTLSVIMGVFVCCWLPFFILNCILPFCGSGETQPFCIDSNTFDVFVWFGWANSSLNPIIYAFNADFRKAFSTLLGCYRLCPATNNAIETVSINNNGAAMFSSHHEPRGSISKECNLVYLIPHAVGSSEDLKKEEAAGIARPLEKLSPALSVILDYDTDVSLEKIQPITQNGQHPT
# Histamine H2 receptor = Histamine H2 receptor (Homo sapiens, UniProt P25021); settings: Compound concentration 10.0 uM
# Histamine H2 receptor, sequence (P25021 whole entry): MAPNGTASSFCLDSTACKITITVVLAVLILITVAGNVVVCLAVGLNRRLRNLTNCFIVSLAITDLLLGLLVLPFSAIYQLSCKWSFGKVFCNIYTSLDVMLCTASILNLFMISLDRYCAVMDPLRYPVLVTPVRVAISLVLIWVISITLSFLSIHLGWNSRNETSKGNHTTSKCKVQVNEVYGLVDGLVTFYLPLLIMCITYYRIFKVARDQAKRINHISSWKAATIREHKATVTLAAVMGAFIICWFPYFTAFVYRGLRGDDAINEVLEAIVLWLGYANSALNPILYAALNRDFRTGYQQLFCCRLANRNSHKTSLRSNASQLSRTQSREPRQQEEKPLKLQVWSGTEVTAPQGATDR
# [9] = molecular target: Kappa-type opioid receptor (Homo sapiens, UniProt P41145); settings: Compound concentration 10.0 uM
# Kappa-type opioid receptor, sequence (P41145 whole entry): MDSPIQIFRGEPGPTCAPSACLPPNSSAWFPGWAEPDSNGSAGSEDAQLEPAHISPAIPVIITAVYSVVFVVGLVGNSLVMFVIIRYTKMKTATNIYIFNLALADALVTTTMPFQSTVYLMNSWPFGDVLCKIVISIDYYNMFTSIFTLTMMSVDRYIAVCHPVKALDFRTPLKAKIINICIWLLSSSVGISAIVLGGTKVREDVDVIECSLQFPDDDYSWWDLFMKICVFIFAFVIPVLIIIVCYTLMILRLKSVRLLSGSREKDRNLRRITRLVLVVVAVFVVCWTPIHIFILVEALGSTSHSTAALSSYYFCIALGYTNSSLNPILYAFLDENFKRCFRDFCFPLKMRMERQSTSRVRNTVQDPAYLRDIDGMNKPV
# [10] = molecular target: Sodium-dependent dopamine transporter (Homo sapiens, UniProt Q01959); settings: Compound concentration 10.0 uM
# Sodium-dependent dopamine transporter, sequence (Q01959 whole entry): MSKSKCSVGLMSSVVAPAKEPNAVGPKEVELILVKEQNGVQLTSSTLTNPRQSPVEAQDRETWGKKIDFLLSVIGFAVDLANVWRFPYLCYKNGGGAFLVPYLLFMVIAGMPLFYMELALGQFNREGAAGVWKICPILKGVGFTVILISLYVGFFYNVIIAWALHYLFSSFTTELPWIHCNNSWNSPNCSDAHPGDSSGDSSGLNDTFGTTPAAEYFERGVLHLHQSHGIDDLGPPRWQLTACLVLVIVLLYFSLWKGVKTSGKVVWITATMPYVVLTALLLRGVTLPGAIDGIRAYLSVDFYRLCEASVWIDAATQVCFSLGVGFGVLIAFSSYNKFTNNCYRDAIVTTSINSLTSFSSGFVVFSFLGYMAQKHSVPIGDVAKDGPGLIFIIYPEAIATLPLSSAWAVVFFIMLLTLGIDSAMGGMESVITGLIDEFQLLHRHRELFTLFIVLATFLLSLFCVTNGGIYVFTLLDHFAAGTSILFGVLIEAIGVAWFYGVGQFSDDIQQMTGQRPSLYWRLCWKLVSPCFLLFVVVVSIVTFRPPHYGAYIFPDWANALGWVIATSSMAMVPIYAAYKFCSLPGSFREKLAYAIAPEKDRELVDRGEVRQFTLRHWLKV
# Rattus norvegicus = species: Rattus norvegicus; settings: Compound concentration 10.0 uM
# [11] = molecular target: Sodium-dependent noradrenaline transporter (Homo sapiens, UniProt P23975); settings: Compound concentration 10.0 uM
# [12] = molecular target: T4, Alpha-2C adrenergic receptor (Homo sapiens) (UniProt P18825); settings: Compound concentration 10.0 uM
# T4 sequence (whole entry): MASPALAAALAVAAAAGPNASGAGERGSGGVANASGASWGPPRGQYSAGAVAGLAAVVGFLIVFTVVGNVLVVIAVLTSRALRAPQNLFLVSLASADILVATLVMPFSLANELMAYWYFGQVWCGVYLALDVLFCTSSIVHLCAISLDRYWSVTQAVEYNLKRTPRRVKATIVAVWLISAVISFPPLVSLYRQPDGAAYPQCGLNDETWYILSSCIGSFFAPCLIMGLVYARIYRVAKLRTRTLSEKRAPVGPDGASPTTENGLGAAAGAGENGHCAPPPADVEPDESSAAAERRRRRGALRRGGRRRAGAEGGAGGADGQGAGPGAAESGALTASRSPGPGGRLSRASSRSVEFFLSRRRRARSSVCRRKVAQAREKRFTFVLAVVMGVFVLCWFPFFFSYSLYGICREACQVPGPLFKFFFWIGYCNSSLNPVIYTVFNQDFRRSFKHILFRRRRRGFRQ
# D(2) dopamine receptor = D(2) dopamine receptor (Homo sapiens, UniProt P14416); assay: GPCRScan assay: inhibition of D2; design: radioligand conc. used [nm] 0.4 – 1.0, parental cells stable fibroblast
# D(2) dopamine receptor, sequence (P14416 whole entry): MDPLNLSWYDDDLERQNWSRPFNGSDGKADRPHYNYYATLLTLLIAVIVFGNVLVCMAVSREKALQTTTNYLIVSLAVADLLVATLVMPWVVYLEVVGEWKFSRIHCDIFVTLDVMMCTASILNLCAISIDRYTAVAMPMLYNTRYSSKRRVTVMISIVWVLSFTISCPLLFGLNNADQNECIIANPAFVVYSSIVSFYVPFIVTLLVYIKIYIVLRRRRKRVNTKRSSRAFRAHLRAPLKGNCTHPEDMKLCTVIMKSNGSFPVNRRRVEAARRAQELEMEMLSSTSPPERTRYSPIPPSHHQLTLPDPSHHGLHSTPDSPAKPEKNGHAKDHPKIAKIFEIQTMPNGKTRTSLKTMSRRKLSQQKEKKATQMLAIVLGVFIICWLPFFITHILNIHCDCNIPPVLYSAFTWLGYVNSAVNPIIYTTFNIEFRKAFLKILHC
# Mu-type opioid receptor = Mu-type opioid receptor (Homo sapiens, UniProt P35372); assay: GPCRScan assay: inhibition of MOR; design: radioligand conc. used [nm] 1.0 – 2.0, parental cells stable HEK
# Mu-type opioid receptor, sequence (P35372 whole entry): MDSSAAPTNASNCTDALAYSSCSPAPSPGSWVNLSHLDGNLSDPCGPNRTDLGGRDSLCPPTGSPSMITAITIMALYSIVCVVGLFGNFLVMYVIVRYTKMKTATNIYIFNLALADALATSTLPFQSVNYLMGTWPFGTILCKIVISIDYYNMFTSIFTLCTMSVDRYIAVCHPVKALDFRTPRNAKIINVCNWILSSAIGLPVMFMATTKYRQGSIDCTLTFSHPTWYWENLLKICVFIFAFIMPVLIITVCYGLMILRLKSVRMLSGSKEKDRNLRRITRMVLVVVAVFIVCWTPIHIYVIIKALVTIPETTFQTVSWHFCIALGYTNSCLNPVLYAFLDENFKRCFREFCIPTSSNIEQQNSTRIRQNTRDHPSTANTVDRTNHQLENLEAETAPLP
SMILES,inhibition [1],% residual kinase activity [2],% residual kinase activity [3],% residual kinase activity [4],% residual kinase activity [5],% residual kinase activity [6],% residual kinase activity [7],% residual kinase activity (ATR/ATRIP (Homo sapiens)),inhibition [8],inhibition (D(1A) dopamine receptor),inhibition (Histamine H2 receptor),inhibition [9],inhibition [10],inhibition (Rattus norvegicus),inhibition [11],inhibition [12],Ki (D(2) dopamine receptor; read-out: Ki),Ki (D(2) dopamine receptor; read-out: pKi (converted)),Ki (Mu-type opioid receptor; read-out: Ki),Ki (Mu-type opioid receptor; read-out: pKi (converted))
CNCc1ccccc1-c1csc([C@@H](C)Nc2nc(C)nc3cc(OC)c(OC)cc23)c1 [BAY-293],62%,79%,80%,84%,87%,88%,88%,88%,106%,85%,99%,105%,90%,71%,86%,99%,,,,
CNCc1ccccc1-c1csc([C@H](C)Nc2nc(C)nc3cc(OC)c(OC)cc23)c1 [BAY-294],,,,,,,,,,,,,,,,,2330 nM,2000 nM,854 nM,759 nM
